The NIST ThermoML archive (doi:10.1016/j.jct.2006.05.005)
± gives the expanded uncertainty stated by the source.

Columns and labels:
[1] = Liquid; for mass density: 293.15 K, 101.33 kPa
[2] = refractive index (Na D-line) (dimensionless); settings: 293.15 K; 101.33 kPa; Liquid

Structure (SMILES)	mass density [1] [kg/m3]	Normal boiling temperature [1] [°C]	refractive index [2]
CC(C)OC(C)C [diisopropyl ether]	723.9 ± 2.4	68.40 ± 0.4	
CCCOCCC [dipropyl ether]	736.1 ± 8.8	90.08 ± 0.4	1.3813 ± 0.0064
CCC(=O)O [propanoic acid]	993 ± 0.74	141.2 ± 0.4	1.3811 ± 0.0017
